Data on 5 substances can be found in patent US9833497B2, “Human originated EGF domain proteins and use of the same” (CHENGDU SOURCEBIO LIMITED-LIABILITY COMPANY, priority 2013, dated 2017).

What all share (type): cell-based
One experiment deals with Moraxella catarrhalis. Description: MIC against Gram-negative bacteria: Moraxella catarrhalis. An outline of the steps:
(§1)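 MIC, the lowest recombinant protein concentration giving no bacterial growth, found by two-fold serial dilution of human EGF-domain proteins in triplicate. Inoculum 5×10^5 CFU/mL in LB from cultures at McFarland 0.5; plates incubated at 37° C, 175 rpm shaking.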

The test system of the next experiment is E. coli BL21. Description: MIC against Gram-negative bacteria: E. coli BL21. An outline of the steps: as §1
In another experiment the test system is Proteus vulgaris. Put plainly: MIC against Gram-negative bacteria: Proteus vulgaris. An outline of the steps:
as §1

For another experiment, the system named is Serratia marcescens. Description: MIC against Gram-negative bacteria: Serratia marcescens. An outline of the steps:
as §1

Another experiment relates to Aeromonas hydrophila. Put plainly: MIC against Gram-negative bacteria: Aeromonas hydrophila. An outline of the steps: as §1
The subject of another experiment is Citrobacter diversus. Put plainly: MIC against Gram-negative bacteria: Citrobacter diversus. An outline of the steps:
as §1

The subject of a further experiment is E. coli DH5α. Put plainly: Antibacterial activity: MIC and growth curve against E. coli DH5α in 96-well plate. The conditions noted are these: minimal inhibitory concentration against E. coli DH5α; 96-well plate, 5×10^5 CFU/mL, 37° C., judged after 8 h. An outline of the steps: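 Log-phase DH5α (OD600 about 0.5, 37° C, 185 rpm in LB) was pelleted, resuspended in fresh LB and seeded at 5×10^5 CFU/mL with recombinant protein at 50, 25 and 12.5 μg/mL (two-fold series), in triplicate. Plates were shaken at 175 rpm, 37° C, and OD600 was read every 30 min. MIC was the lowest concentration with no growth.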

A further experiment relates to Enterobacter cloacae. Description: MIC against Gram-negative bacteria: Enterobacter cloacae. An outline of the steps: as §1
The next experiment relates to Klebsiella pneumonia. Put plainly: MIC against Gram-negative bacteria: Klebsiella pneumonia. An outline of the steps: as §1
Another experiment relates to Pseudomonas aeruginosa. Description: MIC against Gram-negative bacteria: Pseudomonas aeruginosa. An outline of the steps:
as §1

A further experiment relates to Proteus mirabilis. Put plainly: MIC against Gram-negative bacteria: Proteus mirabilis. An outline of the steps: as §1
Where [1] appears, read: 96-well plate, 5×10^5 CFU/mL, 37° C., 10 h.

Regarding “PRT229 (DINECLTSSVCPEHSDCVNSMGSYSCSCQVGFISRNSTCE; listed as Homo sapiens)”, in the experiment with Moraxella catarrhalis (M. catarrhalis, 10 h cultivation at 37° C., 5×10^5 CFU/mL), the “MIC (μg/mL) M. catarrhalis” value was 12.5 µg/mL. Further, the “MIC (μg/mL) E. coli BL21” value against E. coli BL21 (E. coli BL21, 10 h cultivation at 37° C., 5×10^5 CFU/mL) stood at 25 µg/mL. Moreover, the “MIC (μg/mL) P. vulgaris” value with Proteus vulgaris (P. vulgaris, 10 h cultivation at 37° C., 5×10^5 CFU/mL) turned out to be 25 µg/mL. The “MIC (μg/mL) S. marcescens” value with Serratia marcescens (S. marcescens, 10 h cultivation at 37° C., 5×10^5 CFU/mL) was 12.5 µg/mL. Besides, the “MIC (μg/mL) A. hydrophila” value in the experiment on Aeromonas hydrophila (A. hydrophila, 10 h cultivation at 37° C., 5×10^5 CFU/mL) is 12.5 µg/mL. In the experiment with Citrobacter diversus (C. diversus, 10 h cultivation at 37° C., 5×10^5 CFU/mL), the “MIC (μg/mL) C. diversus” value was 12.5 µg/mL. Besides, the MIC in the experiment on E. coli DH5α worked out at 50 µg/mL. In addition, in the experiment with Enterobacter cloacae (E. cloacae, 10 h cultivation at 37° C., 5×10^5 CFU/mL), the “MIC (μg/mL) E. cloacae” value came out at 12.5 µg/mL. In addition, the “MIC (μg/mL) K. pneumonia” value with Klebsiella pneumonia (K. pneumonia, 10 h cultivation at 37° C., 5×10^5 CFU/mL) worked out at 12.5 µg/mL. Further, the “MIC (μg/mL) P. aeruginosa” value with Pseudomonas aeruginosa (P. aeruginosa, 10 h cultivation at 37° C., 5×10^5 CFU/mL) is 12.5 µg/mL. The “MIC (μg/mL) P. mirabilis” value against Proteus mirabilis (P. mirabilis, 10 h cultivation at 37° C., 5×10^5 CFU/mL) was 12.5 µg/mL.
As to “PRT998 (VPLCAPNLCQPKQICKDQKDKANCLCPDGSPGCA; listed as Homo sapiens)”, the MIC in the experiment with Moraxella catarrhalis (M. catarrhalis, 10 h cultivation at 37° C.) amounted to 12.5 µg/mL; against E. coli BL21 (E. coli BL21, 10 h cultivation at 37° C.), 50 µg/mL; in the experiment on Proteus vulgaris (P. vulgaris, 10 h cultivation at 37° C.), 50 µg/mL; against Serratia marcescens (S. marcescens, 10 h cultivation at 37° C.) it was 25 µg/mL; against Aeromonas hydrophila (A. hydrophila, 10 h cultivation at 37° C.), 50 µg/mL; against Citrobacter diversus (C. diversus, 10 h cultivation at 37° C.), 25 µg/mL. The MIC in the experiment on E. coli DH5α amounted to 12.5 µg/mL; in the experiment on Enterobacter cloacae (E. cloacae, 10 h cultivation at 37° C.), 12.5 µg/mL; against Klebsiella pneumonia (K. pneumonia, 10 h cultivation at 37° C.), 50 µg/mL; in the experiment on Pseudomonas aeruginosa (P. aeruginosa, 10 h cultivation at 37° C.) it was 12.5 µg/mL; with Proteus mirabilis (P. mirabilis, 10 h cultivation at 37° C.) it was 25 µg/mL.
“PRT531 (CDCNLEGVLPEICDAHGRCLCRPGVEGPRCDTCRSGFYSFPICQA; listed as Homo sapiens)”: the “MIC against M. catarrhalis” value against Moraxella catarrhalis (setting [1]) was found to be 12.5 µg/mL. In addition, the “MIC against E. coli BL21” value against E. coli BL21 (setting [1]) was determined as 25 µg/mL. Moreover, the “MIC against P. vulgaris” value against Proteus vulgaris (setting [1]) is 12.5 µg/mL. The “MIC against S. marcescens” value with Serratia marcescens (setting [1]) was 50 µg/mL. In addition, in the experiment with Aeromonas hydrophila (setting [1]), the “MIC against A. hydrophila” value turned out to be 12.5 µg/mL. In addition, the “MIC against C. diversus” value with Citrobacter diversus (setting [1]) was 50 µg/mL. In addition, in the experiment on E. coli DH5α, the MIC is 50 µg/mL. The “MIC against E. cloacae” value with Enterobacter cloacae (setting [1]) is 50 µg/mL. In addition, the “MIC against K. pneumonia” value against Klebsiella pneumonia (setting [1]) is 25 µg/mL. Further, the “MIC against P. aeruginosa” value against Pseudomonas aeruginosa (setting [1]) was 12.5 µg/mL. Also, in the experiment on Proteus mirabilis (setting [1]), the “MIC against P. mirabilis” value stood at 50 µg/mL.
As for “PRT454 (LPDQCTPNPCDRKGTQACQDLMGNFFCLCKAGWGGRLCD; listed as Homo sapiens)”, in the experiment on Moraxella catarrhalis (setting [1]), the “MIC against M. catarrhalis” value was determined as 50 µg/mL. In addition, the “MIC against E. coli BL21” value in the experiment with E. coli BL21 (setting [1]) is 12.5 µg/mL. Further, the “MIC against P. vulgaris” value with Proteus vulgaris (setting [1]) turned out to be 50 µg/mL. Further, the “MIC against S. marcescens” value in the experiment with Serratia marcescens (setting [1]) was 12.5 µg/mL. The “MIC against A. hydrophila” value in the experiment with Aeromonas hydrophila (setting [1]) is 12.5 µg/mL. For the same substance, in the experiment with Citrobacter diversus (setting [1]), the “MIC against C. diversus” value turned out to be 25 µg/mL. Further, the MIC in the experiment on E. coli DH5α came to 50 µg/mL. Further, the “MIC against E. cloacae” value with Enterobacter cloacae (setting [1]) turned out to be 25 µg/mL. In the experiment with Klebsiella pneumonia (setting [1]), the “MIC against K. pneumonia” value worked out at 50 µg/mL. Moreover, in the experiment on Pseudomonas aeruginosa (setting [1]), the “MIC against P. aeruginosa” value is 25 µg/mL. In addition, the “MIC against P. mirabilis” value against Proteus mirabilis (setting [1]) worked out at 12.5 µg/mL.
As to “PRT1416 (IEICAADCGGHGVCVGGTCRCEDGWMGAACDQ; listed as Homo sapiens)”, the “MIC against M. catarrhalis” value against Moraxella catarrhalis (Moraxella catarrhalis, 5×10^5 CFU/mL, 10 h cultivation at 37° C.) was 25 µg/mL. Further, the “MIC against E. coli BL21” value with E. coli BL21 (E. coli BL21, 5×10^5 CFU/mL, 10 h cultivation at 37° C.) is 12.5 µg/mL. For the same substance, the “MIC against P. vulgaris” value in the experiment with Proteus vulgaris (Proteus vulgaris, 5×10^5 CFU/mL, 10 h cultivation at 37° C.) was 25 µg/mL. For the same substance, the “MIC against S. marcescens” value against Serratia marcescens (Serratia marcescens, 5×10^5 CFU/mL, 10 h cultivation at 37° C.) amounted to 12.5 µg/mL. For the same substance, in the experiment on Aeromonas hydrophila (Aeromonas hydrophila, 5×10^5 CFU/mL, 10 h cultivation at 37° C.), the “MIC against A. hydrophila” value came to 25 µg/mL. Besides, in the experiment with Citrobacter diversus (Citrobacter diversus, 5×10^5 CFU/mL, 10 h cultivation at 37° C.), the “MIC against C. diversus” value was 12.5 µg/mL. Further, the MIC against E. coli DH5α was 25 µg/mL. Further, in the experiment on Enterobacter cloacae (Enterobacter cloacae, 5×10^5 CFU/mL, 10 h cultivation at 37° C.), the “MIC against E. cloacae” value worked out at 25 µg/mL. Moreover, the “MIC against K. pneumonia” value with Klebsiella pneumonia (Klebsiella pneumonia, 5×10^5 CFU/mL, 10 h cultivation at 37° C.) was 50 µg/mL. In the experiment on Pseudomonas aeruginosa (Pseudomonas aeruginosa, 5×10^5 CFU/mL, 10 h cultivation at 37° C.), the “MIC against P. aeruginosa” value was 25 µg/mL. Also, in the experiment with Proteus mirabilis (Proteus mirabilis, 5×10^5 CFU/mL, 10 h cultivation at 37° C.), the “MIC against P. mirabilis” value amounted to 12.5 µg/mL.
